These results are taken from US20030140370A1, “Fungal glyoxal oxidases” (priority 2001, published 2003).

Chain of glyoxal oxidase (Glo1) (Q7Z868 entry or part of it): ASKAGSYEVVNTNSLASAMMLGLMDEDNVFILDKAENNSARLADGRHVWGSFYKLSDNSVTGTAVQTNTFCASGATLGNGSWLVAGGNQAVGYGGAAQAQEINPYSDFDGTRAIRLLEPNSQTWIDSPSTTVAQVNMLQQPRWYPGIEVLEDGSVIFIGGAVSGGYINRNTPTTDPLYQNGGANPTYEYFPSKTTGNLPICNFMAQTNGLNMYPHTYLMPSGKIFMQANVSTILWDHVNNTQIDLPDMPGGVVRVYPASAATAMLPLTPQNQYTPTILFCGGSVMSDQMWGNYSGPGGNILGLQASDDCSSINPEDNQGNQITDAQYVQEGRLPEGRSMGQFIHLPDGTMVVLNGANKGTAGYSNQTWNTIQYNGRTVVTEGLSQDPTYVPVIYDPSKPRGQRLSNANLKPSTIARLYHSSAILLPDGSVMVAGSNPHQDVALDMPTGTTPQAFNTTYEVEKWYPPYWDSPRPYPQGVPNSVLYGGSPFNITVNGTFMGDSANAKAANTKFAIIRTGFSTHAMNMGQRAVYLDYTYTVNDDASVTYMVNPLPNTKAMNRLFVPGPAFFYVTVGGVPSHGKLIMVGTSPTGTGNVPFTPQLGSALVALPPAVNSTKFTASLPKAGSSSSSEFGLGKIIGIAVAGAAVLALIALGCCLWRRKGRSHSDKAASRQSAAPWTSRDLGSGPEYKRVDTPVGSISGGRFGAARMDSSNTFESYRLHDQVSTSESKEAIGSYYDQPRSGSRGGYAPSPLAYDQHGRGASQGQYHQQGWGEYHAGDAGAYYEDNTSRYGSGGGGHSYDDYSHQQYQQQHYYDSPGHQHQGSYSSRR

The subject of one experiment is Venturia inaequalis. Description: Venturia inaequalis (apple scab) protective test on young plants. It is filed as in vivo. The note with it: protective action, concentration of 250 ppm; 0% = control, 100% = no disease observed. As to the method:
The antifungal action of the compounds (protective action) was tested, inter alia, on Venturia inaequalis as an example. This fungus causes what is known as apple scab, which leads to black and green mottled leaves in pomaceous fruit trees. The lesions enlarge and coalesce. Leaves which are severely infested die, which may lead to the trees losing all their leaves in summer. The infection also has an adverse effect on fruit set. Scab on fruits manifests itself in grey lesions on the skin, with suberification and deformed fruits.
To prepare a suitable preparation of active compound, 1 part by weight of active compound is mixed with, for example, 24.5 parts by weight of acetone and 24.5 parts by weight of dimethylformamide and 1.0 part by weight of alkylaryl polyglycol ether as emulsifier, and the concentrate is diluted with water to the desired concentration.
To test for protective activity, young plants are sprayed with the preparation of the active compound at the application rate stated. After the spray coating has dried on, the plants are inoculated with an aqueous conidial suspension of the apple scab pathogen Venturia inaequalis and then remain in an incubation cabinet for 1 day at approximately 20° C. and 100% relative atmospheric humidity. […]
1 to 12 days post-inoculation, the test is evaluated. […]
`C[Si](C)(C)O[Si](C)(CCCNC(=O)/C=C\c1cc(OC(O)C(O)C(O)C(O)CO)c(O)cc1O)O[Si](C)(C)C` (stereo not drawn) [Example 4] had an efficacy of 45%.

In the next experiment the target is glyoxal oxidase (Glo1) (Ustilago maydis, UniProt Q7Z868). The experiment is described as follows: Enzyme assay for identifying glyoxal oxidase inhibitors (Amplex Red/HRP coupled, cells of overproducer strain Bay-CA95). It is filed as biochemical. The note with it: negative decimal logarithm of molar IC50; intact Bay-CA95 cells, 10 mM methylglyoxal, 9 hours at 30° C., fluorescence 550/595 nm; read-out: pI50 (converted). From the text:
The activity of glyoxal oxidase in vitro and in vivo, for example in the U. maydis cells according to the invention produced as described in Example 3 (CA95) can be detected on the basis of the conversion of the substrate methylglyoxal, exploiting the following reaction:
Methylglyoxal+O2→pyruvate+H2O2
H2O2+10-acetyl-3,7-dihydroxyphenoxazine (Amplex Red®)→resorufin+H2O
Amplex Red® reacts with H2O2 in a 1:1 stoichiometry, giving rise to resorufin (7-hydroxy-3H-phenoxazin-3-one sodium salt). The fluorescence is measured at an excitation wavelength of 550 nm and an emission of 595 nm. A substrate concentration of 10 mM methylglyoxal was employed in the assay. When using intact cells, it must be taken into consideration that the glyoxal oxidase concentration is low and that the reaction must therefore be allowed to proceed longer. Thus, for example, very good readings were obtained after incubation for 9 hours.
The enzyme assay was carried out in a total volume of 50 μl. To this end, the substances to be assayed were introduced in 10 μl substrate solution (50 mM methylglyoxal, 2.5% (v/v) DMSO) into a 384 microtitre plate. The KM value of glyoxal oxidase for methylglyoxal had previously been determined (cf. FIG. 14). The concentration of the candidate compounds to be tested for an inhibitory effect was such that the final concentration of the substances in the assay carried out was 10 μM. In the next step, 20 μl of cell solultion (cells of the overproducer strain Bay-CA95 (OD600=5); 0.2 M 2,2-dimethyl succinate buffer, pH 5, cooled at 4° C.) were added. 20 μl of detection solution (125 μM Amplex Red™ reagent (20 mM stock solution in 100% DMSO), 2.5 U/ml horseradish peroxidase, 62.5 mM sodium phosphate buffer, pH 7.4) were added to the mixture. The mixture was incubated for 9 hours at 30° C. Then, the increase in fluorescence was measured at λ=550 nm (absorption) and λ=595 nm (emission), the results of a measurement in the presence of Bay-CA95 cells being compared with the results of a measurement in the presence of the wild-type U. maydis 518 cells (see also FIG. 15). The substances used in the assay were present in the following final concentrations: c(2,2-dimethyl succinate/NaOH)=40 mM, c(Amplex Red® (Molecular Probes))=50 μM, c(horseradish peroxidase)=0.001 U/μl, c(methylglyoxal)=10 mM, OD (Bay-CA95)=1, c(sodium phosphate buffer)=25 mM. The inhibitory effect of a candidate compound could be seen from the decrease in relative fluorescence, and inhibitors were identified. […] Table II also gives pI50 values which have been determined for the individual compounds. The pI50 value is the negative decimal logarithm of what is known as the IC50 value, which indicates the molar concentration of a substance which leads to 50% inhibition of the enzyme. For example, a pI50 value of 8 corresponds to half the maximum inhibition of the enzyme at a concentration of 10 nM.
With `COc1ccc(NCc2ccccc2O)cc1` [Example 5], the IC50 is 3.98 µM.

As to `CCOc1ccc(NCc2ccccc2O)cc1` [Example 2], the IC50 was 4.07 µM.

On to `C[Si](C)(C)O[Si](C)(CCCNC(=O)/C=C\c1cc(OC(O)C(O)C(O)C(O)CO)c(O)cc1O)O[Si](C)(C)C` (stereo not drawn) [Example 4], for which the IC50 was 3.8 µM.

Turning to `Nc1ccc(Oc2ccc(N)cc2)cc1` [Example 3], the IC50 is 5.62 µM.

Take `COc1ccc(C(=O)Nc2ccccc2)cc1N` [Example 1]: the IC50 is 11 µM.
